Test results from patent US20180252700A1, “SCREENING AGENTS IN DRY EYE DISEASE” (Ora, Inc., priority 2016, published 2018).

Target: T1, TRPM8 (Homo sapiens, UniProt Q7Z2W7)
T1 construct: cold receptors express TRPM8 channels, which are sensitive to innocuous cooling; from tissue; host or cells: eye (corneal cold thermoreceptor nerve endings) of living human subjects
Experiment: Menthol vs placebo symptom response on 0-10 Cooling Scale, escalating menthol concentrations (Example 1)
Type: in vivo
Settings: for Is Menthol symptom response significantly higher than placebo? (TSS): Wilcox signed rank test, 95% confidence; for Duration of symptoms (furthest time point post-dose with symptom score higher than 0), mean: average of all concentrations
Procedure: 6 Healthy and 4 Dry Eye individuals participated in a 2-day internal pilot study. Each participant underwent randomized eye, contralateral, 15 μl pipette-instilled dosing of menthol and placebo (Sterile PBS, pH 7.2), across an escalating range of Menthol concentrations. The following dilutions (USP-grade L-Menthol in Sterile PBS, pH 7.2) were initially tested, in the following order (concentrations are w/v):
Post dose, a 0-10 Cooling Scale questionnaire, where 0 represents “No cooling sensation”, and 10 denotes “Maximum cooling sensation”, was asked at the following time points (OD, OS separate; OD represents your right eye and OS represents your left eye): Upon instillation, 30 seconds, 1 minute, 2 minutes, 3 minutes, and 4 minutes—post dose. At least 45 minutes was allowed between each successive dosing to allow for re-sensitization of TRPM8, as well as to allow any analgesic effects of μ-opioid activity to diminish. At the beginning of Visit 1, symptom questionnaires and Ocular Surface Disease Index (OSDI) were asked. After all concentrations of menthol had been tested, Fluorescein staining and Anesthetized Schirmer's test were performed (1 hour washout). The Schirmer test, first described in 1903 by Schirmer, is still the method most commonly used to evaluate aqueous tear production (Schirmer Graefes Arch Clin Exp Ophthalmol. 1903; 56:197-291,1903).
The primary parameter used was Total Symptom Sum, or TSS (sum of all time points), in active eye vs placebo eye. The secondary parameter used was “Upon instillation” Cooling score. FIG. 1 illustrates a frequency distribution of all symptom scores, based on a histogram of the data. […] As such, nonparametric statistical analysis was used to determine if differences exist between treatments (menthol vs placebo). In the following results, a Wilcox Signed Rank test was employed to test the null hypothesis that Menthol and Placebo elicit statistically similar symptom scores on the Cooling Scale. If TTest Stat<TCritical Value. If so, then the null hypothesis can be rejected with 95% confidence.
All concentrations tested are shown in Table 2, below, along with statistical significance indicated for either group according to a Wilcox Signed Rank Test (Total Symptom Sum, Menthol vs Placebo): […]

[1] = Dry Eye Population, Menthol 0.000050 (w/v)
[2] = Dry Eye Population, Menthol 0.000075 (w/v)
[3] = Dry Eye Population, Menthol 0.0001 (w/v)
[4] = Dry Eye Population, Menthol 0.001 (w/v)
[5] = Healthy Population, Menthol 0.001 (w/v)

T1 sequence (Q7Z2W7 whole entry): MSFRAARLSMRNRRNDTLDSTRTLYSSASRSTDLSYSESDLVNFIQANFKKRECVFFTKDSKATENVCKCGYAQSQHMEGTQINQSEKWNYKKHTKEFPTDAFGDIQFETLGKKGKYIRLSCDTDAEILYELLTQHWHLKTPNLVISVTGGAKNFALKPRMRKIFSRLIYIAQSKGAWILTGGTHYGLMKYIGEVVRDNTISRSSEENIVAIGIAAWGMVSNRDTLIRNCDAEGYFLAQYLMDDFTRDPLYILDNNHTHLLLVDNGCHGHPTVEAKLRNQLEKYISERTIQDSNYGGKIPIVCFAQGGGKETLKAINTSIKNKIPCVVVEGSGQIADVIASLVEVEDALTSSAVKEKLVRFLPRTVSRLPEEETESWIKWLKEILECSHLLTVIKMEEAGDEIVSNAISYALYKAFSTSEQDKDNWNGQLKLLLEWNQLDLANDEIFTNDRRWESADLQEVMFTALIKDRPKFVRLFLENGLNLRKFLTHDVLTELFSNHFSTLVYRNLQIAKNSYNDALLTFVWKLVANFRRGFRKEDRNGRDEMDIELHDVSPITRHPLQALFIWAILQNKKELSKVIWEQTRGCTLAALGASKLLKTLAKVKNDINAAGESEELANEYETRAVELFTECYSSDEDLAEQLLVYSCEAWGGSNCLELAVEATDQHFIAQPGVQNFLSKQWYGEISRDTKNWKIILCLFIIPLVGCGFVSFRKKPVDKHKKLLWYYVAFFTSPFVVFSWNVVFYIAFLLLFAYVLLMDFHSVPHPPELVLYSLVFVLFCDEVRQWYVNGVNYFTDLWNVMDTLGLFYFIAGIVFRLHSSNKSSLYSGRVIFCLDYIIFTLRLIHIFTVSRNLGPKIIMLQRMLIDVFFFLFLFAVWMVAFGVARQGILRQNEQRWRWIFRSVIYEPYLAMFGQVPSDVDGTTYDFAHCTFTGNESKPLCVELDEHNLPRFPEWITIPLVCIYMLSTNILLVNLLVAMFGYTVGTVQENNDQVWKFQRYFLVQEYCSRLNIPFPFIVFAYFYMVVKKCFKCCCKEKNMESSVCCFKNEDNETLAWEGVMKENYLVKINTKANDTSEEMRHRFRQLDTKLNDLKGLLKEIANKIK

For CC(C)[C@@H]1CC[C@@H](C)C[C@H]1O [Menthol, L-Menthol], the “% of population that had significantly higher menthol TSS than placebo TSS” value (Dry Eye Population, Menthol 0.000001 (w/v)) was 0%, the “% of population that had significantly higher menthol TSS than placebo TSS” value (Dry Eye Population, Menthol 0.00001 (w/v)) was 0% and the “% of population that had significantly higher menthol TSS than placebo TSS” value (Dry Eye Population, Menthol 0.000025 (w/v)) was 0%. The “% of population that had significantly higher menthol TSS than placebo TSS” value [1] was 75%, the “Is Menthol symptom response significantly higher than placebo? (TSS)” value [1] was “YES” and the “% of population that had significantly higher menthol TSS than placebo TSS” value [2] was 25%. The “Is Menthol symptom response significantly higher than placebo? (TSS)” value [2] was “YES”, the “% of population that had significantly higher menthol TSS than placebo TSS” value [3] was 25% and the “Is Menthol symptom response significantly higher than placebo? (TSS)” value [3] was “YES”. For the same compound, the “% of population that had significantly higher menthol TSS than placebo TSS” value [4] was 75%, the “Is Menthol symptom response significantly higher than placebo? (TSS)” value [4] was “YES” and the “Duration of symptoms (furthest time point post-dose with symptom score higher than 0), mean” value (Dry Eye, p=0.004 vs Normal) was 2.58 min. For the same compound, the “% of population that had significantly higher menthol TSS than placebo TSS” value (Healthy Population, Menthol 0.000001 (w/v)) was 0%, the “% of population that had significantly higher menthol TSS than placebo TSS” value (Healthy Population, Menthol 0.00001 (w/v)) was 0% and the “% of population that had significantly higher menthol TSS than placebo TSS” value (Healthy Population, Menthol 0.000025 (w/v)) was 0%. The “% of population that had significantly higher menthol TSS than placebo TSS” value (Healthy Population, Menthol 0.000050 (w/v)) was 16%, the “% of population that had significantly higher menthol TSS than placebo TSS” value (Healthy Population, Menthol 0.000075 (w/v)) was 16% and the “% of population that had significantly higher menthol TSS than placebo TSS” value (Healthy Population, Menthol 0.0001 (w/v)) was 0%. For the same compound, the “% of population that had significantly higher menthol TSS than placebo TSS” value [5] was 50%, the “Is Menthol symptom response significantly higher than placebo? (TSS)” value [5] was “YES” and the “Correlation score between Menthol TSS and 4-Symptom Questionnaire” value (Menthol 0.001%) was 0.64. The “Correlation score between Menthol TSS and Fluorescein Staining (Corneal)” value (Menthol 0.001%) was 0.50, the “Correlation score between Menthol TSS and OSDI” value (Menthol 0.001%) was 0.79 and the “Menthol TSS, Dry Eye vs Normal” value (Menthol 0.001%) was “significantly higher than Normal”. For the same compound, the “Duration of symptoms (furthest time point post-dose with symptom score higher than 0), mean” value (Normal) was 1.57 min, the “"Upon Instillation" menthol symptom response, Normal vs Dry Eye” value (any concentrations tested, FIG. 3) was “No significant differences” and the “Symptom response to menthol (TSS), dry eye subjects vs normal” value (concentrations of 0.0001% and up, FIG. 2) was “significantly higher in dry eye subjects”. For the same compound, the “Lower concentration at which Dry Eye population can differentiate Menthol from Placebo compared with Normal” value (from Table 2) was 50 fold.
